Source: patent US20100209345A1, “Fluorinated Ligands for Targeting Peripheral Benzodiazepine Receptors” (Australian Nuclear Science & Technology Organisation, priority 2006, published 2010)
Values joined by “and” are separate entries in the source; they are usually repeats but may differ in a detail not shown here. Equal entries are not always repeated. Where two headings read alike, the source gives them in different places.

Columns and labels:
[1] = target: T1, peripheral benzodiazepine binding site (Rattus norvegicus, UniProt P16257); experiment: In vitro binding, [3H]-PK11195, kidney membrane preparation; conditions: [3H]-PK11195 (2 nM), 4° C., 1 h
T1 construct: diluted kidney membrane preparation (200 μg); from tissue; host or cells: kidney membrane preparation
Protocol: Non-specific binding was determined with PK11195 (10 μM).
(§1) Non-specific binding was determined with Flumazenil (20 μM). In both cases, incubations were terminated by rapid filtration through Whatman GF/B glass fibre. Filters were immediately washed 3 times with 5 mL ice-cold 50 mM Tris/HCl at pH 7.4. Filters were counted in a β-scintillation counter (Packard) to measure the amount of bound radioactivity. The IC50 of the compounds for the peripheral benzodiazepine binding site and the central benzodiazepine receptor were calculated using Kell 6 software.

[2] = target: central benzodiazepine receptors; experiment: In vitro binding, [3H]-Flumazenil, brain cortex membrane preparation; conditions: [3H]-Flumazenil (2 nM), 25° C., 45 min, read-out: CBR IC50
Protocol: as §1

[3] = LogP HPLC
[4] = Biodistribution of 18F-labelled tracers in rats; assay type: in vivo; conditions: SD rats; for Biodistribution: Adrenals / Biodistribution: Bladder / Biodistribution: Blood / Biodistribution: Bone / Biodistribution: Brain / Biodistribution: GIT / Biodistribution: Heart / Biodistribution: Kidney / Biodistribution: Liver / Biodistribution: Lungs / Biodistribution: Muscle / Biodistribution: Olfactory bulbs / Biodistribution: Pancreas / Biodistribution: Skin / Biodistribution: Spleen / Biodistribution: Stomach / Biodistribution: Testes / Biodistribution: Thymus / Biodistribution: Thyroid: decay correction not stated
Protocol: [^18F]Fluoride, in the form of H^18F, was produced by the ^18O(p,n)^18F nuclear reaction by bombardment of ^18O-enriched water target. The aqueous [^18F]fluoride solution was added to a 2.5-mL wheaton vial containing dry acetonitrile (1 mL), Kryptofix 2.2.2 (5 mg, 13.3 μmol) and potassium carbonate (2 mg, 14.5 μmol). The solvent was evaporated under a stream of nitrogen at 90° C. with a reducing vacuum. This azeotropic drying was repeated twice by further addition of acetonitrile (2×1 mL). The tosylate precursor 2-(2-(4-(2-tosylethoxy)phenyl)-6-chloroimidazo[1,2-a]pyridin-3-yl)-N,N-diethylacetamide (2 mg, 3.6 μmol) was dissolved in acetonitrile (1 ml) and added to the dried K222.K2CO3.KF complex. Stirring and heating at 90° C. continued for 10 to 15 mins before the reaction mixture was diluted with mobile phase and purified by reverse phase HPLC on an Alltech Alltima, C18, 10μ, 250×22 mm column eluting at 10 mLs/min with 45% acetonitrile, 55% water with 0.1% TFA.
The biodistribution of PBR132* was undertaken in SD rats and analysis up to 4 h p.i. in the brain and peripheral tissues was performed. The specificity and selectivity of the tracer were assessed by pre-treatment with PBR and Central benzodiazepine receptor (CBR) specific ligands (1 mg/kg) 5 min prior to injection of PBR132*.
The biodistribution of PBR 147* was performed in SD rats and brain and peripheral tissues were analysised at 15, 30 min, 1, and 4 h p.i. The specificity and selectivity of the tracer was assessed by pre-treatment of the animals with the PBR ligands PK11195 and Ro 5-4864 and with Flumazenil for CBR at 1 mg/kg 5 min prior to injection of PBR 147*
The biodistribution of PBR102* and PBR111* were performed in SD rats and brain and peripheral tissues analysed at 15, 30 min, 1, and 4 h p.i. The specificity and selectivity of the tracers were assessed by pre-treatment with the PBR ligands PK11195 and Ro 5-4864 and with Flumazenil for CBR at 1 mg/kg 5 min prior to injection of the corresponding tracers.
The specificity and selectivity of the tracers were assessed by pre-treatment with the PBR ligands PK11195 and Ro 5-4864 and with Flumazenil for CBR at 1 mg/kg 5 min prior to injection of the corresponding tracers.

In the case of “2-(6-chloro-2-(4-methoxyphenyl)imidazo[1,2-b]pyridazin-3-yl)-N,N-diethylacetamide [PBR 133]”, the IC50 ([1]; read-out: PBR IC50) is reported as 32 nM, the IC50 [2] is reported as 18.8 nM and the “LogP HPLC” value ([3]; HPLC) is reported as 2.35 ± 0.07.
Work on `CCN(CC)C(=O)Cc1c(-c2ccc(C(C)(C)C)cc2)nc2ccc(F)nn12` [Compound 1, reference compound] yielded an IC50 ([1]; PBR IC50 (nM)) of 29 nM and an IC50 [2] of 340 nM.
For `CCN(CC)C(=O)Cc1c(-c2ccc(OCCF)cc2)nn2c(C)cc(C)nc12` [PBR099, 2-(2-(4-(2-fluoroethoxy)phenyl)-5,7-dimethylpyrazolo[1,5-a]pyrimidin-3-yl)-N,N-diethylacetamide], the “Biodistribution: Adrenals” value ([4]; 15 min) was 5.64 ± 0.53 % ID/g, the “Biodistribution: Bladder” value ([4]; 15 min) was 0.46 ± 0.18 % ID/g and the “Biodistribution: Blood” value ([4]; 15 min) was 0.23 ± 0.03 % ID/g. The “Biodistribution: Bone” value ([4]; 15 min) was 0.64 ± 0.03 % ID/g, the “Biodistribution: Brain” value ([4]; 15 min) was 0.21 ± 0.01 % ID/g and the “Biodistribution: GIT” value ([4]; 15 min) was 0.83 ± 0.09 % ID/g. For the same compound, the “Biodistribution: Heart” value ([4]; 15 min) was 5.86 ± 0.44 % ID/g, the “Biodistribution: Kidney” value ([4]; 15 min) was 3.9 % ID/g and 3.85 ± 0.24 % ID/g and the “Biodistribution: Liver” value ([4]; 15 min) was 0.63 ± 0.06 % ID/g. The “Biodistribution: Lungs” value ([4]; 15 min) was 14.55 ± 1.35 % ID/g, the “Biodistribution: Muscle” value ([4]; 15 min) was 0.65 ± 0.14 % ID/g and the “Biodistribution: Olfactory bulbs” value ([4]; 15 min) was 0.35 % ID/g and 0.35 ± 0.03 % ID/g. The “Biodistribution: Pancreas” value ([4]; 15 min) was 1.70 ± 0.13 % ID/g, the “Biodistribution: Skin” value ([4]; 15 min) was 0.35 ± 0.04 % ID/g and the “Biodistribution: Spleen” value ([4]; 15 min) was 4.60 ± 0.29 % ID/g. The “Biodistribution: Stomach” value ([4]; 15 min) was 0.45 ± 0.18 % ID/g, the “Biodistribution: Testes” value ([4]; 15 min) was 0.184 ± 0.006 % ID/g and the “Biodistribution: Thymus” value ([4]; 15 min) was 0.62 ± 0.17 % ID/g. The “Biodistribution: Thyroid” value ([4]; 15 min) was 6.94 ± 1.04 % ID/g, the “Biodistribution: Adrenals” value ([4]; 30 min) was 6.6 % ID/g and 6.56 ± 1.20 % ID/g and the “Biodistribution: Bladder” value ([4]; 30 min) was 0.42 ± 0.08 % ID/g. The “Biodistribution: Blood” value ([4]; 30 min) was 0.16 ± 0.01 % ID/g, the “Biodistribution: Bone” value ([4]; 30 min) was 0.70 ± 0.02 % ID/g and the “Biodistribution: Brain” value ([4]; 30 min) was 0.14 ± 0.01 % ID/g. For the same compound, the “Biodistribution: GIT” value ([4]; 30 min) was 0.90 ± 0.03 % ID/g, the “Biodistribution: Heart” value ([4]; 30 min) was 5.59 ± 0.26 % ID/g and the “Biodistribution: Kidney” value ([4]; 30 min) was 3.62 ± 0.53 % ID/g. The “Biodistribution: Liver” value ([4]; 30 min) was 0.54 ± 0.18 % ID/g, the “Biodistribution: Lungs” value ([4]; 30 min) was 8.82 ± 0.53 % ID/g and the “Biodistribution: Muscle” value ([4]; 30 min) was 0.55 ± 0.03 % ID/g. For the same compound, the “Biodistribution: Olfactory bulbs” value ([4]; 30 min) was 0.28 ± 0.03 % ID/g, the “Biodistribution: Pancreas” value ([4]; 30 min) was 1.33 ± 0.16 % ID/g and the “Biodistribution: Skin” value ([4]; 30 min) was 0.49 ± 0.02 % ID/g. For the same compound, the “Biodistribution: Spleen” value ([4]; 30 min) was 4.71 ± 0.61 % ID/g, the “Biodistribution: Stomach” value ([4]; 30 min) was 0.32 ± 0.04 % ID/g and the “Biodistribution: Testes” value ([4]; 30 min) was 0.209 ± 0.007 % ID/g. The “Biodistribution: Thymus” value ([4]; 30 min) was 0.66 ± 0.14 % ID/g, the “Biodistribution: Thyroid” value ([4]; 30 min) was 7.99 ± 1.83 % ID/g and the “Biodistribution: Adrenals” value ([4]; 60 min) was 7.82 ± 1.73 % ID/g. For the same compound, the “Biodistribution: Bladder” value ([4]; 60 min) was 0.72 ± 0.17 % ID/g, the “Biodistribution: Blood” value ([4]; 60 min) was 0.14 ± 0.01 % ID/g and the “Biodistribution: Bone” value ([4]; 60 min) was 0.79 ± 0.03 % ID/g. The “Biodistribution: Brain” value ([4]; 60 min) was 0.13 ± 0.02 % ID/g, the “Biodistribution: GIT” value ([4]; 60 min) was 1.31 ± 0.08 % ID/g and the “Biodistribution: Heart” value ([4]; 60 min) was 6.45 ± 0.43 % ID/g. For the same compound, the “Biodistribution: Kidney” value ([4]; 60 min) was 3.53 ± 0.24 % ID/g, the “Biodistribution: Liver” value ([4]; 60 min) was 0.40 ± 0.05 % ID/g and the “Biodistribution: Lungs” value ([4]; 60 min) was 5.66 ± 0.56 % ID/g. For the same compound, the “Biodistribution: Muscle” value ([4]; 60 min) was 0.43 ± 0.02 % ID/g, the “Biodistribution: Olfactory bulbs” value ([4]; 60 min) was 0.29 ± 0.03 % ID/g and the “Biodistribution: Pancreas” value ([4]; 60 min) was 1.08 ± 0.19 % ID/g. For the same compound, the “Biodistribution: Skin” value ([4]; 60 min) was 0.48 ± 0.04 % ID/g, the “Biodistribution: Spleen” value ([4]; 60 min) was 4.51 ± 0.70 % ID/g and the “Biodistribution: Stomach” value ([4]; 60 min) was 0.41 ± 0.09 % ID/g. The “Biodistribution: Testes” value ([4]; 60 min) was 0.266 ± 0.019 % ID/g, the “Biodistribution: Thymus” value ([4]; 60 min) was 0.77 ± 0.12 % ID/g and the “Biodistribution: Thyroid” value ([4]; 60 min) was 9.90 ± 3.67 % ID/g. The “Biodistribution: Bladder” value ([4]; 4 hours) was 0.80 ± 0.11 % ID/g, the “Biodistribution: Blood” value ([4]; 4 hours) was 0.16 ± 0.01 % ID/g and the “Biodistribution: Bone” value ([4]; 4 hours) was 1.0 % ID/g and 1.07 ± 0.05 % ID/g. For the same compound, the “Biodistribution: Brain” value ([4]; 4 hours) was 0.15 ± 0.01 % ID/g, the “Biodistribution: GIT” value ([4]; 4 hours) was 1.90 ± 0.09 % ID/g and the “Biodistribution: Heart” value ([4]; 4 hours) was 4.29 ± 0.86 % ID/g. For the same compound, the “Biodistribution: Kidney” value ([4]; 4 hours) was 2.4 % ID/g and 2.41 ± 0.40 % ID/g, the “Biodistribution: Liver” value ([4]; 4 hours) was 0.29 ± 0.04 % ID/g and the “Biodistribution: Lungs” value ([4]; 4 hours) was 2.80 ± 0.51 % ID/g. The “Biodistribution: Muscle” value ([4]; 4 hours) was 0.30 ± 0.05 % ID/g, the “Biodistribution: Olfactory bulbs” value ([4]; 4 hours) was 0.31 % ID/g and 0.31 ± 0.05 % ID/g and the “Biodistribution: Pancreas” value ([4]; 4 hours) was 0.56 ± 0.09 % ID/g. The “Biodistribution: Skin” value ([4]; 4 hours) was 0.65 ± 0.05 % ID/g, the “Biodistribution: Spleen” value ([4]; 4 hours) was 2.88 ± 0.56 % ID/g and the “Biodistribution: Stomach” value ([4]; 4 hours) was 0.79 ± 0.16 % ID/g. For the same compound, the “Biodistribution: Testes” value ([4]; 4 hours) was 0.349 ± 0.011 % ID/g, the “Biodistribution: Thymus” value ([4]; 4 hours) was 0.91 ± 0.05 % ID/g and the “Biodistribution: Thyroid” value ([4]; 4 hours) was 7.97 ± 1.37 % ID/g. The “Blood activity level / concentration in the blood over the 4 h study period” value ([4]; throughout 15 min to 4 h) was 0.23%, the IC50 [2] was greater than 5000 nM and the chromatographic logP [3] was 2.54 ± 0.08.
`CCCN(CCC)C(=O)Cc1c(-c2ccc(OCCF)cc2)nc2ccc(Cl)cn12` [PBR103, 2-(2-(4-(2-fluoroethoxy)phenyl)-6-chloroimidazo[1,2-a]pyridin-3-yl)-N,N-dipropylacetamide] showed an IC50 ([1]; PBR IC50 (nM)) of 51.3 nM, an IC50 [2] of 1840 nM and a chromatographic logP [3] of 3.44 ± 0.11.
`O=C(Cc1c(-c2ccc(OCCF)cc2)nc2ccc(Cl)cn12)N1CCCC1` [PBR104, 2-(2-(4-(2-fluoroethoxy)phenyl)-6-chloroimidazo[1,2-a]pyridin-3-yl)-1-(pyrrolidin-1-yl)ethanone] showed an IC50 ([1]; PBR IC50 (nM)) of 575 nM, an IC50 [2] of 1640 nM and a chromatographic logP [3] of 2.45 ± 0.08.
In the case of `CN(C)C(=O)Cc1c(-c2ccc(OCCF)cc2)nc2ccc(Cl)cn12` [PBR105, 2-(2-(4-(2-fluoroethoxy)phenyl)-6-chloroimidazo[1,2-a]pyridin-3-yl)-N,N-dimethylacetamide], the IC50 ([1]; PBR IC50 (nM)) is reported as 675 nM, the IC50 [2] is reported as 1760 nM and the chromatographic logP [3] is reported as 2.04 ± 0.06.
